Assay results taken from US6809175B1, “Cadherin derived growth factor and its use” (Prof. Dr. Wolf-Georg Forssmann, priority 1997, dated 2004).

What was measured:
primary osteoblasts [1] = test: Proliferation assay on primary osteoblasts ([3H]thymidine or BrdU incorporation); format: cell-based; details: primary osteoblasts from fetal rat calvarias; serum-free medium with 1 mg/ml BSA; established for both native and synthetic peptide
Procedure: The isolation of OB-CDGF was based on its biological activity in a proliferation assay of the primary osteoblasts. Thus, aliquots of each of the individual chromatographic stages described under Example 1 were freeze-dried and then subjected to a biological assay. The fractions which gave a positive signal were respectively subjected to further purification.
The assay measures the proliferation of the cells after having been kept in serum-free medium with 1 mg/ml bovine serum albumin, adding the samples and determining the incorporation of [^3H]thymidine or bromode-oxyuranosine (Brdu) after a further 48 hours. As a positive control, factors promoting bone growth, such as IGF or angiotensin, or fetal calf serum (FCS) are employed.
The experiments were performed by analogy with Pfeilschifter et al., Endocrinology 126, 703, 1990.
The recovery of primary osteoblasts was effected by sequential digestive separation from fetal rat calvarias using collagenase to obtain 5 cell fractions. The pooled cell fractions 3-5 were cultured in vitro. […]
At the end of the incubation time, the cell cultures were washed three times with 0.9% saline, and then 100 μl of liquid scintillator (OptiPhase Super-mix®, Wallac) was added to each well. Subsequently, the radioactivity incorporated in the DNA was measured in a liquid scintillation counter (1450 MicroBeta®, Wallac) in cpm. […]

[2] = tested on: neonatal rat osteoblast monolayers; test: Binding assay of 125I-labeled OB-CDGF to osteoblasts; details: confluent layers and extracellular matrix of neonatal rat osteoblasts; 2 hours at 4° C.; FIG. 5
Procedure: The binding of the osteoproliferative peptides to neonatal rat osteoblast monolayers was effected with the use of ^125j-labeled peptides. Chloramine T was used for iodination. The specific activity of the peptides was 100,000 cpm/ng. The binding studies were performed on confluent layers and the extracellular matrix of a first passage of neonatal rat osteoblasts. The cells were incubated for 24 hours in serum-containing medium and then washed four times with PBS and incubated for 2 hoursat 4° C. in 250 μl of the assay buffer (20 mM HEPES, 0.1 mg/ml BSA, pH 7.0) with 80,000 cpm of the iodine-labeled peptide in the presence of different concentrations of the unlabeled peptide. The incubation buffer was then removed, and the cells washed four times with cold PBS and solubilized with 1 M NaOH. The cell-bound activity was determined using a gamma counter. The corresponding experimental results are represented in FIG. 5.

primary osteoblasts [3] = test: Intracellular calcium release in primary osteoblasts (Fura-2); format: cell-based, rat; details: single primary osteoblasts, Fura-2, fluorescence microscope; FIG. 6
Procedure: The intracellular signal chain for calcium^2+is measured on individual osteoblast cells. The intracellular Ca^2+activity of primary osteoblasts is measured with the Ca^2+-sensitive dye Fura-2 (Calbiochem, Bad Soden, Germany). The primary osteoblasts are cultured for one to three days on glass supports (diameter 30 mm) attached to a perfusion chamber of an inverted microscope (Axiomat IDC-UV, Zeiss, Gottingen, Germany). […]
The incubation is followed by an equilibration period of 10 to 15 min in which the cells are washed with KHB solution at 37° C. with a perfusion rate of about 5 ml/min. The Fura-2-charged primary osteoblasts are measured at 340, 360 and 380 nm with a high speed filter wheel (rotational speed 10 Hertz), a single-photon counter tube (Hamamatsu, Herrsching, Germany) and a xenon quartz lamp (XBO 75 W/OFR, Zeiss, Germany) as a light/impulse source. The Fura-2 emission is measured through a long-wave filter at 510 nm with an Ultrafluar 125 ×glycerol immersion lens. […] The ratio of photon emissions upon excitation at 340 and 380 nm is evaluated. […] The raw data are calculated, and 10 neighboring data points are averaged to obtain a time resolution of 1 Hz. The fluorescence at 360 nm is used to test calcium activity. All samples are dissolved in a phosphate buffer prior to the experiment and measured for at least 1 to 2 minutes. […]

MAP kinase = test: Western blot detection of intracellular MAP kinase in primary osteoblasts; format: cell-based, rat; details: primary osteoblasts incubated for different periods of time; FIG. 7
Procedure: As already shown under Example 5, intracellular calcium release can be induced on primary osteoblasts by incubation with CDGF. To further characterize this physiological response, the further intracellular signal pathway (downstream from calcium) was examined. One possible signal transduction cascade is the activation of MAP kinase, an enzyme which plays an essential role in the signal transduction from the cytoplasm into the nucleus. Signal transmission involves phosphorylation of the enzyme which can be detected with a specific antibody. Thus, this protein can be detected in a Western blot, which is a measure of both the phosphorylation and the expression due to the stimulus. Primary osteoblasts were incubated with cadherin or controls (FCS) for different periods of time. Expression of the enzyme (MAP kinase) in the cell was detected in the Western blot by the addition of the antibody. The results are represented in FIG. 7. […] The longer the stimulation with OB-CDGF, the more clearly could the band be discerned. […] Therefrom, it can be concluded that CDGF acts through calcium in a receptor-mediated way, and the further signal processing proceeds via MAP kinase.

[4] = tested on: primary cultures of neurons from spinal ganglia of chicken embryos; test: Survival-promoting effect on primary nerve cell cultures (cellular LDH level); format: cell-based; details: neurons from spinal ganglia of chicken embryos (E10); cellular LDH level after 48 hours
Procedure: Primary Nerve Cell Cultures From Spinal Ganglia of Chicken Embryos (Embryo-Onal Development E10)
The preparation and cultivation is performed as described by Borasio G. D., John J., Wittinghofer A., Barde Y.-A., Sendtner M., Heumann R. (1989), Neuron 2, 1087-1096. To determine survival-promoting effects of active substances, determination of the cellular LDH level after an incubation time of 48 hours is employed. To this end, the culture medium is removed by tapping out the plate. Only the vital cells remain adhered to the bottom of the plate and can then be determined. To determine the LDH level, the LDH cytotoxicity test kit of Boehringer Mannheim (BM) is employed.
The cultures were used in duplicate in 96-well microtitration plates. On each plate, an NGF calibration curve is established in parallel, and the biological activity of the substances is expressed in pg/ml of NGF equivalents. As a low-molecular weight reference, the starurosporin derivative K252a is used in a parallel test in a concentration of 300 nmol/l.

## ERRGHLRPSFHGHHEKGKEGQVLQRS (listed as Homo sapiens) [OB-CDGF, peptide purified from human hemofiltrate and resynthesized; human cadherin-11 precursor propeptide, amino acids 26-51]
Primary osteoblasts [1]
  growth-promoting effect on primary osteoblasts (proliferation): dose-dependent growth-promoting effect
[2]
  displacement of labeled OB-CDGF by unlabeled OB-CDGF (specific binding): the level of specifically bound labeled OB-CDGF is reduced
Primary osteoblasts [3]
  intracellular calcium concentration: intracellular calcium concentration increases
MAP kinase
  expression of intracellular MAP kinase (Western blot band): leads to expression of intracellular MAP kinase

## QPQPQQTLATEPRENVIHLPGQRSHFQRV (listed as Homo sapiens) [BR-CDGF, peptide corresponding to the CDGF region of cadherin-12 (BR-cadherin; N-cadherin-2)]
[4]
  survival-promoting effect on primary neurons: survival-promoting effect on these primary neurons in a concentration-dependent way

## TLSTPLSKRTSGFPAKKRALELSGNSKNELNRS (listed as Homo sapiens) [CAD6-CDGF, peptide corresponding to the CDGF region of cadherin-6]
[4]
  survival-promoting effect on primary neurons: survival-promoting effect on these primary neurons in a concentration-dependent way
